Values of other authors in patent publication US9616027B2, “Pramipexole sustained release tablet formulation and manufacturing method thereof and use thereof” (SHIJIAZHUANG RAPISTEP PHARMACEUTICAL TECHNOLOGY R&D INC., priority 2013, dated 2017).
Read-outs that look alike come from different tables or passages of the source.

Columns and labels:
[1] = in vivo
[2] = not given; remark: listed apart in the source
[3] = test system: patients with advanced Parkinson's disease; details: with levodopa

## CCCN[C@H]1CCc2nc(N)sc2C1 [Pramipexole, (S)-2-Amino-4,5,6,7-tetrahydro-6-(propylamino) benzothiazole]
[1]
  effect of food intake on absorption: Food intake shall influence absorption
  kinetic characteristics: linear kinetic characteristics
pH 2 to pH 7.4 buffer media
  solubility in a pH 2 to pH 7.4 buffer media: higher than 10 mg/ml
water
  Water-solubility: greater than 20 mg/ml
[2]; grinding
  crystal modification (monohydrate) under grinding: does not change under grinding
[2]; solid state
  stability in the solid state: very stable
[2]; solution
  stability of solution to light: light sensitive
[3]; 0.375 mg increased to 4.5 mg, 18 weeks of treatment
  UPDRS score: −11.0
[3]; 18 weeks of treatment
  regulation change of the "off" state: -2.1 h
[3]; 33 weeks of treatment
  UPDRS score: −11.1
